Data set [1] is described as follows: Inhibition of HCV ATPase activity of NS3 NTPase/helicase domain expressed in Escherichia coli BL21 after 30 mins by thin layer chromatography in presence of [gamma-32P]ATP. The arrangement: species or system Hepacivirus hominis.
Data set [2] in a line: Selectivity index, ratio of CC50 for human Huh7ET cells to EC50 for HCV infected in human Huh7ET cells. Set-up: species or system Huh-7.
Data set [3] can be described thus: Cytotoxicity against human Huh7ET cells by neutral red assay. It is filed as cell-based, Huh-7.
The test system of data set [4] is Hepatitis C virus. In words: Antiviral activity against HCV infected in human Huh7ET cells assessed as inhibition of viral replication by luciferase reporter gene assay/RNA blot hybridization analysis. Type of data set: functional, organism-based, Hepacivirus hominis. Particulars: Huh-7. On the technique in general: In a reporter assay the amount or activity of a reporter protein is the signal.

Data set [5] concerns Human immunodeficiency virus 1. In words: Antiviral activity against HIV1. Type of data set: functional, organism-based.
A short description of data set [6]: Inhibition of HCV NS3 NTPase/helicase domain expressed in Escherichia coli BL21 using dsRNA as substrate assessed as strand separation of [32P]-labeled oligonucleotides after 30 mins by SDS-gel electrophoresis. Set-up: species or system Hepacivirus hominis.
For a further data set, the system named is Hepacivirus hominis. In words: Inhibition of HCV NS5B RNA dependent RNA polymerase at 100 uM.
Data set [7] can be described thus: Inhibition of HCV NS3 NTPase/helicase domain expressed in Escherichia coli BL21 using dsDNA as substrate assessed as strand separation of [32P]-labeled oligonucleotides after 30 mins by SDS-gel electrophoresis. Set-up: species or system Hepacivirus hominis.
A short description of data set [8]: Inhibition of Dengue virus helicase.
A short description of data set [9]: Binding affinity to double stranded RNA assessed as effect on Eco-RI-digested pT7-7 plasmid mobilization at 20 to 500 uM after 60 mins by agarose gel mobility assay.
Data set [10] in a line: Binding affinity to double stranded DNA assessed as effect on Eco-RI-digested pT7-7 plasmid mobilization at 20 to 500 uM after 60 mins by agarose gel mobility assay.
In data set [11] the test system is Hepatitis C virus. As to the kind of experiment: Antiviral activity against HCV infected in human Huh7ET cells assessed as inhibition of viral replication by luciferase reporter gene assay. Particulars: Huh-7. It is filed as functional, organism-based, Hepacivirus hominis.
The nature of data set [12]: Cytotoxicity against human Huh7ET cells by luciferase reporter gene assay. It is filed as cell-based. To be noted: huh-7.
Data set [13] in a line: Selectivity index, ratio of CC50 for human Huh7ET cells by luciferase reporter gene assay to EC50 for HCV infected in human Huh7ET cells by luciferase reporter gene assay. The arrangement: species or system Huh-7.

Results on seven molecules are retold here after ChEMBL document CHEMBL3102775, “UK-1 and structural analogs are potent inhibitors of hepatitis C virus replication” (Bioorg Med Chem Lett, 2014).

Active and inactive are the calls of the source. The rule behind the calls is not given here.

For the molecule `O=C(O)c1cccc2oc(-c3ccccc3O)nc12`, the IC50 in data set [1] was more than 1200 µM; in [6], more than 1800 µM; in [7], more than 1800 µM; in data set [8] it was more than 700 µM. For the same molecule, in [2], the “Ratio CC50/EC50” value stood at 6.6. This molecule also displayed a 50% cytotoxic concentration (CC50) in data set [3] (huh-7) of 3.5 µM. Moreover, the EC50 with Hepatitis C virus [4] stood at 0.53 µM. In addition, the result in [5] was inactive. This molecule also came in with an inhibition in the data set with Hepacivirus hominis of less than 30%.

Take `COC(=O)c1cccc2oc(-c3ccc4ccc(OCc5ccccc5)cc4c3O)nc12`: the half-maximal inhibitory concentration (IC50) in [1] was more than 1200 µM; in data set [6] it was 20 µM; in [7] it was 2.6 µM; in data set [8], more than 700 µM. For the same molecule, the outcome in data set [9], in data set [5] and in [10] was inactive. In data set [2], the “Ratio CC50/EC50” value was more than 37. This molecule also returned a CC50 in [3] (Huh7ET cells) of more than 20 µM. Also, the EC50 with Hepatitis C virus [4] stood at 0.54 µM. The inhibition with Hepacivirus hominis was less than 30%.

`COC(=O)c1cccc2oc(-c3cccc4oc(-c5ccccc5O)nc34)nc12`: the IC50 in [1] is more than 1200 µM; in data set [6], more than 1200 µM; in data set [7], 380 µM; in data set [8], more than 700 µM. Further, the “Ratio CC50/EC50” value in [2] is 22. The molecule further came in with a CC50 in [3] (huh-7) of 17 µM. For the same molecule, the EC50 in the data set on Hepatitis C virus [4] was determined as 0.77 µM. Further, the inhibition with Hepacivirus hominis was less than 30%.

On to `CNC(=O)c1cccc2oc(-c3ccccc3O)nc12`, for which the EC50 in the data set with Hepatitis C virus [11] came out at 1.4 µM. Further, the 50% inhibitory concentration (IC50) was more than 1200 µM in [1], more than 1800 µM in data set [6], more than 1800 µM in data set [7] and more than 700 µM in [8]. Also, in data set [5], the result was inactive. The CC50 in data set [12] stood at 6.3 µM. The molecule also returned an inhibition in the data set with Hepacivirus hominis of less than 30%. Besides, the “Ratio CC50/EC50” value in data set [13] worked out at 4.5.

With `COC(=O)c1cccc2oc(-c3ccc4ccccc4c3O)nc12`, the half-inhibitory concentration (IC50) in [1] is more than 1200 µM; in [6] it was 590 µM; in data set [7], 540 µM; in [8], more than 700 µM. In addition, the “Ratio CC50/EC50” value in data set [2] came out at 4.7. The CC50 in [3] (huh-7) amounted to 2.5 µM. Moreover, the half-maximal effective concentration (EC50) in the data set with Hepatitis C virus [4] was found to be 0.53 µM. Moreover, the result in [5] was inactive. The same molecule displayed an inhibition in the data set on Hepacivirus hominis of less than 30%.

Take `COC(=O)c1cccc2oc(-c3ccc4c(OCc5ccccc5)cccc4c3O)nc12`: the IC50 in [1] is more than 1200 µM; in data set [6] it was 20 µM; in data set [7] it was 3.8 µM; in data set [8], more than 700 µM. In addition, the result in data set [9], in data set [5] and in [10] was inactive. For the same molecule, the “Ratio CC50/EC50” value in data set [2] is reported as more than 10. The same molecule yielded a CC50 in [3] (Huh7ET cells) of more than 20 µM. Moreover, the EC50 in the data set with Hepatitis C virus [4] turned out to be 2.1 µM. For the same molecule, the inhibition with Hepacivirus hominis is less than 30%.

Regarding `COC(=O)c1cccc2oc(-c3ccccc3O)nc12`, the half-inhibitory concentration (IC50) is more than 1200 µM in data set [1], more than 1800 µM in data set [6], more than 1800 µM in [7] and more than 700 µM in [8]. Further, in [2], the “Ratio CC50/EC50” value worked out at 11. In data set [3] (huh-7), this molecule gave a CC50 of 5.4 µM. Further, the EC50 in the data set with Hepatitis C virus [4] worked out at 0.5 µM. Also, in data set [5], the result was inactive. Besides, the inhibition with Hepacivirus hominis is less than 30%.

By IC50 is commonly meant the concentration that gives 50% inhibition. What is called CC50 is the concentration giving 50% cytotoxicity. Lower therefore signals greater toxicity to the cells. The EC50 is the concentration needed to bring the measured effect to its halfway point. What is called inhibition is the relative decrease from the control value, in per cent. High values mean strong suppression, low ones little suppression.
